Organism: Rattus norvegicus
Assay: DrugMatrix - Regimen: Daily Repeat
Assay type: toxicity, organism-based, Sprague-Dawley
Set-up: regimen Daily Repeat, gender Male, age 6-8 weeks
Conditions: in vivo, po, route oral GAVAGE, […]; for ABSOLUTE BASOPHIL / ABSOLUTE EOSINOPHIL / ABSOLUTE LYMPHOCYTE / ABSOLUTE MONOCYTE / ABSOLUTE SEGMENTED NEUTROPHIL / BASOPHIL / EOSINOPHIL / ERYTHROCYTE COUNT / HEMATOCRIT / HEMOGLOBIN / LEUKOCYTE COUNT / LYMPHOCYTE / MEAN CORPUSCULAR HEMOGLOBIN / MEAN CORPUSCULAR HEMOGLOBIN CONCENTRATION / MEAN CORPUSCULAR VOLUME / MONOCYTE / NEUTROPHIL / NUCLEATED RED BLOOD CELLS / PLATELET COUNT: tissue Blood; for ALANINE AMINOTRANSFERASE / ALBUMIN / ALKALINE PHOSPHATASE / ASPARTATE AMINOTRANSFERASE / BLOOD UREA NITROGEN / CARBON DIOXIDE / CHLORIDE / CHOLESTEROL / CREATINE PHOSPHOKINASE / CREATININE / GLUCOSE / LACTATE DEHYDROGENASE / LIPASE / PHOSPHORUS / POTASSIUM / SODIUM / TOTAL BILIRUBIN / TOTAL PROTEIN / URIC ACID: tissue Plasma
[1] = 0 mg/kg, 72 h, dose level Control, time 3 day
[2] = 0 mg/kg, 120 h, dose level Control, time 5 day
[3] = 5 mg/kg, 72 h, dose level Low, time 3 day

## O=c1oc2ccccc2c(O)c1Cc1c(O)c2ccccc2oc1=O [DICUMAROL]
[1]
  ABSOLUTE BASOPHIL: 0 CELLS/uL
  ABSOLUTE EOSINOPHIL: 0 CELLS/uL
  ABSOLUTE LYMPHOCYTE: 9244.83 CELLS/uL
  ABSOLUTE MONOCYTE: 102 CELLS/uL
  ABSOLUTE SEGMENTED NEUTROPHIL: 869.83 CELLS/uL
  BASOPHIL: 0%
  EOSINOPHIL: 0%
  ERYTHROCYTE COUNT: 5.43 x10E6/uL
  HEMATOCRIT: 34.03%
  HEMOGLOBIN: 13.27 G/DL
  LEUKOCYTE COUNT: 10.22 x10E3/uL
  LYMPHOCYTE: 90.33%
  MEAN CORPUSCULAR HEMOGLOBIN: 24.48 pg
  MEAN CORPUSCULAR HEMOGLOBIN CONCENTRATION: 39.03 G/DL
  MEAN CORPUSCULAR VOLUME: 62.75 fL
  MONOCYTE: 1%
  NEUTROPHIL: 8.67%
  NUCLEATED RED BLOOD CELLS: 0.17 /100WBC
  PLATELET COUNT: 989 x10E3/uL
  ALANINE AMINOTRANSFERASE: 77 u/L
  ALBUMIN: 3.97 G/DL
  ALKALINE PHOSPHATASE: 464.83 u/L
  ASPARTATE AMINOTRANSFERASE: 89.83 u/L
  BLOOD UREA NITROGEN: 12.17 mg/dL
  CARBON DIOXIDE: 34.17 mmol/L
  CHLORIDE: 98.33 MEQ/L
  CHOLESTEROL: 75.17 mg/dL
  CREATINE PHOSPHOKINASE: 367.67 u/L
  CREATININE: 0.16 mg/dL
  GLUCOSE: 142.67 mg/dL
  LACTATE DEHYDROGENASE: 139.33 u/L
  LIPASE: 9.5 u/L
  PHOSPHORUS: 10.85 mg/dL
  POTASSIUM: 6.38 MEQ/L
  SODIUM: 143.2 MEQ/L
  TOTAL BILIRUBIN: 0.2 mg/dL
  TOTAL PROTEIN: 5.77 G/DL
  URIC ACID: 0.7 mg/dL
[2]
  ABSOLUTE BASOPHIL: 0 CELLS/uL
  ABSOLUTE EOSINOPHIL: 0 CELLS/uL
  ABSOLUTE LYMPHOCYTE: 8295.33 CELLS/uL
  ABSOLUTE MONOCYTE: 84.67 CELLS/uL
  ABSOLUTE SEGMENTED NEUTROPHIL: 970 CELLS/uL
  BASOPHIL: 0%
  EOSINOPHIL: 0%
  ERYTHROCYTE COUNT: 5.74 x10E6/uL
  HEMATOCRIT: 36.22%
  HEMOGLOBIN: 13.85 G/DL
  LEUKOCYTE COUNT: 9.35 x10E3/uL
  LYMPHOCYTE: 88.67%
  MEAN CORPUSCULAR HEMOGLOBIN: 24.13 pg
  MEAN CORPUSCULAR HEMOGLOBIN CONCENTRATION: 38.25 G/DL
  MEAN CORPUSCULAR VOLUME: 63.08 fL
  MONOCYTE: 1%
  NEUTROPHIL: 10.33%
  NUCLEATED RED BLOOD CELLS: 0.17 /100WBC
  PLATELET COUNT: 883.83 x10E3/uL
  ALANINE AMINOTRANSFERASE: 64.5 u/L
  ALBUMIN: 4.12 G/DL
  ALKALINE PHOSPHATASE: 425.67 u/L
  ASPARTATE AMINOTRANSFERASE: 88.5 u/L
  BLOOD UREA NITROGEN: 14.17 mg/dL
  CARBON DIOXIDE: 30.5 mmol/L
  CHLORIDE: 100.33 MEQ/L
  CHOLESTEROL: 55.33 mg/dL
  CREATINE PHOSPHOKINASE: 287.17 u/L
  CREATININE: 0.2 mg/dL
  GLUCOSE: 162.83 mg/dL
  LACTATE DEHYDROGENASE: 111.33 u/L
  LIPASE: 10.5 u/L
  PHOSPHORUS: 10.32 mg/dL
  POTASSIUM: 5.13 MEQ/L
  SODIUM: 143.93 MEQ/L
  TOTAL BILIRUBIN: 0.17 mg/dL
  TOTAL PROTEIN: 5.9 G/DL
  URIC ACID: 0.77 mg/dL
[3]
  ABSOLUTE BASOPHIL: 0 CELLS/uL
  ABSOLUTE EOSINOPHIL: 0 CELLS/uL
  ABSOLUTE LYMPHOCYTE: 11414.33 CELLS/uL
  ABSOLUTE MONOCYTE: 52 CELLS/uL
  ABSOLUTE SEGMENTED NEUTROPHIL: 1133.67 CELLS/uL
  BASOPHIL: 0%
  EOSINOPHIL: 0%
  ERYTHROCYTE COUNT: 5.32 x10E6/uL
  HEMATOCRIT: 33.6%
  HEMOGLOBIN: 13.17 G/DL
  LEUKOCYTE COUNT: 12.6 x10E3/uL
  LYMPHOCYTE: 91%
  MEAN CORPUSCULAR HEMOGLOBIN: 24.8 pg
  MEAN CORPUSCULAR HEMOGLOBIN CONCENTRATION: 39.2 G/DL
  MEAN CORPUSCULAR VOLUME: 63.37 fL
  MONOCYTE: 0.33%
  NEUTROPHIL: 8.67%
  NUCLEATED RED BLOOD CELLS: 0 /100WBC
  PLATELET COUNT: 1057.33 x10E3/uL
  ALANINE AMINOTRANSFERASE: 67.67 u/L
  ALBUMIN: 4.03 G/DL
  ALKALINE PHOSPHATASE: 399.67 u/L
  ASPARTATE AMINOTRANSFERASE: 91 u/L
  BLOOD UREA NITROGEN: 10.33 mg/dL
  CARBON DIOXIDE: 32.67 mmol/L
  CHLORIDE: 99 MEQ/L
  CHOLESTEROL: 74 mg/dL
  CREATINE PHOSPHOKINASE: 353.33 u/L
  CREATININE: 0.24 mg/dL
  GLUCOSE: 146 mg/dL
  LACTATE DEHYDROGENASE: 177 u/L
  LIPASE: 9 u/L
  PHOSPHORUS: 11.23 mg/dL
  POTASSIUM: 6.24 MEQ/L
  SODIUM: 143.6 MEQ/L
  TOTAL BILIRUBIN: 0.17 mg/dL
  TOTAL PROTEIN: 5.7 G/DL
  URIC ACID: 0.6 mg/dL
